Test results published in patent US20220274961A1, “SUBSTITUTED FUSED BI- OR TRI- HETEROCYCLIC COMPOUNDS AS EHMT2 INHIBITORS” (priority 2016, published 2022).
pIC50: −log10 of the molar value. Like-named read-outs stand apart in the source and are kept apart here.

Legend:
EHMT1 = target: T1, EHMT1 (Homo sapiens, UniProt Q9H9B1); test: EHMT1 PEP; format: biochemical
T1 sequence (Q9H9B1 1-1298): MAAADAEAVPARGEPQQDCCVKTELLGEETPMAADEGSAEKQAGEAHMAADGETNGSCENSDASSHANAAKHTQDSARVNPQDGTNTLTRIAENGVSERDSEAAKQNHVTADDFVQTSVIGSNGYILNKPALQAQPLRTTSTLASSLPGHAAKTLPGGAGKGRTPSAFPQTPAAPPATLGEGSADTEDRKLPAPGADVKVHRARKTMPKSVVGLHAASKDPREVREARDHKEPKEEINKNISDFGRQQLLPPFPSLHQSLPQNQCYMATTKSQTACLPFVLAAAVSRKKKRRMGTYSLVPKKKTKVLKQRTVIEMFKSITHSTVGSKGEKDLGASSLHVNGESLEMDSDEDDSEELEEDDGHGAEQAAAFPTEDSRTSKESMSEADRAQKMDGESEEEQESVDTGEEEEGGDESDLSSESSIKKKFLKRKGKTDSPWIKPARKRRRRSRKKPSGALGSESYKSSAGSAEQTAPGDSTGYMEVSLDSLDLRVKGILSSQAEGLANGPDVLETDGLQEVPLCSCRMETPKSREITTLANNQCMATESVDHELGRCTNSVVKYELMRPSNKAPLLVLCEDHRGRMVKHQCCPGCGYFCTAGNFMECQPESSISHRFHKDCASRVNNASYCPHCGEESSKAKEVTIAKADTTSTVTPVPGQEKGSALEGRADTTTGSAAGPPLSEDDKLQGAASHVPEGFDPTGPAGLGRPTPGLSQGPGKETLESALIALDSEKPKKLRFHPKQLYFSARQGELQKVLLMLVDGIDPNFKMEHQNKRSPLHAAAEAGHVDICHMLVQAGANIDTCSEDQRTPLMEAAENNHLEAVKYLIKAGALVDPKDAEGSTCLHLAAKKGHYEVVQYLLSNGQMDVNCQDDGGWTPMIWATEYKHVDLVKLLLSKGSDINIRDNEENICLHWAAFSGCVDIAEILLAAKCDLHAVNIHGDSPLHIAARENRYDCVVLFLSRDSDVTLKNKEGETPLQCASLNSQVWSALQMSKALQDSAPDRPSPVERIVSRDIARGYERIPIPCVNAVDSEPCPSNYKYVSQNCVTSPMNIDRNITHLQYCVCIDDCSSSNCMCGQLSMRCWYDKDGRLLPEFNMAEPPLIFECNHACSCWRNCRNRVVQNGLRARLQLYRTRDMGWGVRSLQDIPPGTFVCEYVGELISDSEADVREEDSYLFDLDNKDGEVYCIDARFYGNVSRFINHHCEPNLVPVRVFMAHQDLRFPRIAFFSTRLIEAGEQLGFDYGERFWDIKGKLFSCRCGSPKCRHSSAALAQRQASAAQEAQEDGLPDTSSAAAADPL

human EHMT2 913-1193 = target: T2, human EHMT2 913-1193 (Homo sapiens, UniProt Q96KQ7); test: biochemical; conditions: for IC50: recombinant human EHMT2 913-1193, histone H3 1-15 peptide, 3H-SAM, balanced conditions, read-out: EHMT2 PEP (IC50 μM)
T2 construct: recombinant purified human EHMT2 913-1193, Viva; purchased Viva
T2 sequence (Q96KQ7 913-1193): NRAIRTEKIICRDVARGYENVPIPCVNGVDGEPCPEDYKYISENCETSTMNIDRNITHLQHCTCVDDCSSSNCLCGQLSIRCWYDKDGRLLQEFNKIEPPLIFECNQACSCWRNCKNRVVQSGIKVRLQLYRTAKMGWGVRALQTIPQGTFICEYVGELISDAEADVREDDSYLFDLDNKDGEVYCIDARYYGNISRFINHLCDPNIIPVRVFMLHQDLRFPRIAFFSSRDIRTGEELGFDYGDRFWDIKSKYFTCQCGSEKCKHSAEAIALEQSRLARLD
Source text: Biotinylated histone peptides were synthesized by Biopeptide and HPLC-purified to >95% purity. Streptavidin Flashplates and seals were purchased from PerkinElmer and 384 Well V-bottom Polypropylene Plates were from Greiner. ^3H-labeled S-adenosylmethionine (^3H-SAM) was obtained from American Radiolabeled Chemicals with a specific activity of 80 Ci/mmol. Unlabeled SAM and S-adenosylhomocysteine (SAH) were obtained from American Radiolabeled Chemicals and Sigma-Aldrich respectively. […] 384-well Flashplates and 96-well filter binding plates were read on a TopCount microplate reader (PerkinElmer). Compound serial dilutions were performed on a Freedom EVO (Tecan) and spotted into assay plates using a Thermo Scientific Matrix PlateMate (Thermo Scientific). Reagent cocktails were added by Multidrop Combi (Thermo Scientific).
General Procedure for EHMT2 Enzyme Assay on Histone Peptide Substrate. 10-point curves of test compounds were made on a Freedom EVO (Tecan) using serial 3-fold dilutions in DMSO, beginning at 2.5 mM (final top concentration of compound was 50 μM and the DMSO was 2%). A 1 μL aliquot of the inhibitor dilution series was spotted in a polypropylene 384-well V-bottom plate (Greiner) using a Thermo Scientific Matrix PlateMate (Thermo Scientific). […] Reactions were incubated for 60 minutes at room temperature and quenched with 10 μL per well of 400 μM unlabeled SAM, then transferred to a 384-well streptavidin Flashplate (PerkinElmer) and washed in a Biotek ELx-405 well washer with 0.1% Tween after 60 minutes. 384-well Flashplates were read on a TopCount microplate reader (PerkinElmer).

Compound	IC50 (EHMT1) [µM]	pIC50 (human EHMT2 913-1193)	IC50 (human EHMT2 913-1193) [µM]
COc1cc2c(cc1OCCCN1CCCC1)N=C(N)C21CCCC1 [Compound 56]	< 0.1	> 7.00	–
COc1cc2c(cc1OCCCN1CCOCC1)N=C(N)C21CCC1 [Compound 54]	0.1 to 1	–	0.1 to 1
NC1=Nc2cc(OCCCN3CCCC3)c(OCc3ccccc3)cc2C12CCC2 [Compound 58]	1 to 10	–	1 to 10
COc1cc2c(cc1OCCCN1CCCC1)N=C(N)C21CCCCC1 [Compound 55]	< 0.1	–	< 0.1
COc1cc2c(cc1OCCCN1CC[C@@H](O)C1)N=C(N)C21CCC1 [Compound 49]	< 0.1	–	< 0.1
CNCCCOc1cc2c(cc1OC)C1(CCC1)C(N)=N2 [Compound 57]	1 to 10	–	1 to 10
CNC1=Nc2cc(C#C[C@@H](C)N3CCCCC3)c(OC)cc2C12CCC2 [Compound 94]	0.1 to 1	–	0.1 to 1
COc1cc2c(cc1OCC(O)CN1CCCC1)N=C(N)C21CCC1 (centres unmarked) [Compound 62]	< 0.1	–	< 0.1
NC1=Nc2cc(OCCCN3CCCC3)c(OCC3CCCCC3)cc2C12CCC2 [Compound 61]	> 10	–	> 10
COc1cc2c(cc1OCCCN)N=C(N)C21CCC1 [Compound 69]	1 to 10	–	1 to 10
COc1cc2c(cc1OCC(C)CN1CCCC1)N=C(N)C21CCC1 (centres unmarked) [Compound 65]	0.1 to 1	–	0.1 to 1
COc1cc2c(cc1OCCCN)N=C(N)C2(C)C [Compound 47]	1 to 10	–	1 to 10
NC1=Nc2cc(OCCCN3CCCC3)c(-c3ccccc3)cc2C12CCC2 [Compound 135]	1 to 10	–	> 10
COc1cc2c(cc1OCCCN(C)C)N=C(N)C2(C)C [Compound 46]	0.1 to 1	–	0.1 to 1
COc1cc2c(cc1OCCCN1CCCC1)ncn2C(C)C [Compound 67]	> 10	–	1 to 10
CCOc1cc2c(cc1OCCCN1CCCC1)N=C(N)C21CCC1 [Compound 59]	< 0.1	–	< 0.1

Compound	IC50 (EHMT1) [µM]	pIC50 (human EHMT2 913-1193)	IC50 (human EHMT2 913-1193) [µM]
CNC1=Nc2cc(C#CCN3CC4CC4C3)c(OC)cc2C12CCC2 (centres unmarked) [Compound 87]	< 0.1	–	< 0.1
COc1cc2c(cc1OCCCN1CCCC1)C1(CCC1)C(N)=N2 [Compound 66]	1 to 10	–	1 to 10
CNC1=Nc2cc(C#CCN3CCC(O)C3)c(OC)cc2C12CCC2 (centres unmarked) [Compound 95]	< 0.1	–	0.1 to 1
CNCCCOc1cc2c(cc1OC)C(C)(C)C(N)=N2 [Compound 48]	0.1 to 1	–	0.1 to 1
NC1=Nc2cc(OCCCN3CCCC3)c(-c3ccncc3)cc2C12CCC2 [Compound 136]	1 to 10	–	> 10
COc1cc2c(cc1OCCCN(C)C)N=C(N)C21CCC1 [Compound 53]	< 0.1	–	< 0.1
CNC1=Nc2cc(C#C[C@H](C)N3CCCCC3)c(OC)cc2C12CCC2 [Compound 93]	< 0.1	–	< 0.1
CC(C)Oc1cc2c(cc1OCCCN1CCCC1)N=C(N)C21CCC1 [Compound 68]	1 to 10	–	1 to 10
NC1=Nc2cc(OCCCN3CCCC3)c(OCC3CCOCC3)cc2C12CCC2 [Compound 60]	1 to 10	–	1 to 10
COc1cc2nc[nH]c2cc1OCCCN1CCCC1 [Compound 51]	1 to 10	–	1 to 10
COc1cc2c(cc1OCCCN1CC[C@H](O)C1)N=C(N)C21CCC1 [Compound 50]	< 0.1	–	< 0.1
NC1=Nc2cc(OCCCN3CCCC3)c(-c3cccnc3)cc2C12CCC2 [Compound 137]	> 10	–	> 10
COc1cc2c(cc1OCCCN1CCCCC1)N=C(N)C21CCC1 [Compound 52]	0.1 to 1	–	< 0.1
COc1cc2c(cc1OCCCN1CCC1)N=C(N)C21CCC1 [Compound 43]	< 0.1	–	< 0.1
CNC1=Nc2cc(C#CC(C)N3CC4CC4C3)c(OC)cc2C12CCC2 (centres unmarked) [Compound 89]	< 0.1	–	< 0.1
